Reference: ChEMBL document CHEMBL1129673, “Antitumor activity of the R- and S-enantiomers of RS-2-[[hydroxy[[2-[ (octadecyloxy)methyl]tetrahydrofuran-2-yl]methoxy]-phosphinyl]oxy]-N, N,N,-trimethylethylaminium hydroxide inner salt” (1996)

What was measured:
[1] = tested on: Mus musculus; experiment: Antitumor activity against mouse macrophages after day 7 at dose 2.50 mg/kg by peroral administration; type: functional; details: dose 2.5 mg/kg; route oral
[2] = tested on: Mus musculus; experiment: Antitumor activity against mouse macrophages after day 14 at dose 2.50 mg/kg by peroral administration; type: functional; details: dose 2.5 mg/kg; route oral
[3] = tested on: Mus musculus; experiment: Antitumor activity against mouse macrophages after day 28 at dose 2.50 mg/kg by peroral administration; type: functional; details: dose 2.5 mg/kg; route oral
[4] = tested on: Mus musculus; experiment: Antitumor activity against mouse macrophages after day 21 at dose 2.50 mg/kg by peroral administration; type: functional; details: dose 2.5 mg/kg; route oral
[5] = tested on: Mus musculus; experiment: Mouse survived after 28 days at 2.5 mg/kg; 3/10; type: functional
[6] = tested on: Mus musculus; experiment: Mouse survived after 28 days at 2.5 mg/kg; 8/10; type: functional
[7] = tested on: Mus musculus; experiment: Antitumor activity against mouse macrophages after day 21 at dose 0.25 mg/kg by peroral administration; type: functional; details: route oral
[8] = tested on: P815; experiment: Antitumor activity against P815 cells at concentration 3 ug/mL and at 72 hr using Activated Macrophage Cytotoxicity assay.; type: functional, Mus musculus
[9] = tested on: YAC-1; experiment: Antitumor activity against YAC-1 tumor cells at concentration 5 ug/mL and at 72 hr using direct cytotoxicity assay.; type: functional, Mus musculus
[10] = Antitumor activity against Abelson-8.1 cells at concentration 3 ug/mL and at 72 hr using Activated Macrophage Cytotoxicity assay.; type: functional, Mus musculus
[11] = Antitumor activity against Abelson-8.1 cells at concentration 5 ug/mL and at 72 hr using direct cytotoxicity assay.; type: functional, Mus musculus
[12] = tested on: Mus musculus; experiment: Antitumor activity against mouse macrophages after day 7 at dose 0.25 mg/kg by peroral administration; type: functional; details: route oral
[13] = tested on: Mus musculus; experiment: Mouse survived after 28 days at 2.5 mg/kg; 6/10; type: functional
[14] = tested on: L1210; experiment: Antitumor activity against L1210 cells at concentration 3 ug/mL using Activated Macrophage Cytotoxicity assay.; type: functional, Mus musculus
[15] = tested on: L1210; experiment: Antitumor activity against L1210 cells at concentration 5 ug/mL and at 72 hr and at 72 hr using Activated Macrophage Cytotoxicity assay.; type: functional, Mus musculus
[16] = tested on: P815; experiment: Antitumor activity against P815 cells at concentration 3 ug/mL and at 72 hr using direct cytotoxicity assay.; type: functional, Mus musculus
[17] = tested on: P815; experiment: Antitumor activity against P815 cells at concentration 5 ug/mL and at 72 hr using Activated Macrophage Cytotoxicity assay.; type: functional, Mus musculus
[18] = tested on: YAC-1; experiment: Antitumor activity against YAC-1 tumor cells at concentration 3 ug/mL and at 72 hr using Activated Macrophage Cytotoxicity assay.; type: functional, Mus musculus
[19] = tested on: P815; experiment: Antitumor activity against P815 cells at concentration 5 ug/mL and at 72 hr using direct cytotoxicity assay.; type: functional, Mus musculus
[20] = tested on: YAC-1; experiment: Antitumor activity against YAC-1 tumor cells at concentration 1 ug/mL and at 72 hr using Activated Macrophage Cytotoxicity assay.; type: functional, Mus musculus
[21] = Antitumor activity against Abelson-8.1 cells at concentration 5 ug/mL and at 72 hr using Activated Macrophage Cytotoxicity assay.; type: functional, Mus musculus
[22] = tested on: L1210; experiment: Antitumor activity against L1210 cells at concentration 1 ug/mL and at 72 hr using direct cytotoxicity assay.; type: functional, Mus musculus
[23] = Antitumor activity against Abelson-8.1 cells at concentration 3 ug/mL and at 72 hr using direct cytotoxicity assay.; type: functional, Mus musculus
[24] = tested on: Mus musculus; experiment: Antitumor activity against mouse macrophages after day 28 at dose 0.25 mg/kg by peroral administration; type: functional; details: route oral
[25] = Antitumor activity against Abelson-8.1 cells at concentration 1 ug/mL and at 72 hr using Activated Macrophage Cytotoxicity assay.; type: functional, Mus musculus
[26] = tested on: Mus musculus; experiment: Mouse survived after 28 days at 0.25 mg/kg; 3/10; type: functional
[27] = tested on: L1210; experiment: Antitumor activity against L1210 cells at concentration 1 ug/mL and at 72 hr using Activated Macrophage Cytotoxicity assay.; type: functional, Mus musculus
[28] = tested on: YAC-1; experiment: Antitumor activity against YAC-1 tumor cells at concentration 5 ug/mL and at 72 hr using Activated Macrophage Cytotoxicity assay.; type: functional, Mus musculus
[29] = tested on: L1210; experiment: Antitumor activity against L1210 cells at concentration 5 ug/mL and at 72 hr using direct cytotoxicity assay.; type: functional, Mus musculus
[30] = tested on: YAC-1; experiment: Antitumor activity against YAC-1 tumor cells at concentration 1 ug/mL and at 72 hr using direct cytotoxicity assay.; type: functional, Mus musculus
[31] = tested on: P815; experiment: Antitumor activity against P815 cells at concentration 1 ug/mL and at 72 hr using direct cytotoxicity assay.; type: functional, Mus musculus
[32] = tested on: YAC-1; experiment: Antitumor activity against YAC-1 tumor cells at concentration 3 ug/mL and at 72 hr using direct cytotoxicity assay.; type: functional, Mus musculus
[33] = tested on: L1210; experiment: Antitumor activity against L1210 cells at concentration 3 ug/mL and at 72 hr using direct cytotoxicity assay.; type: functional, Mus musculus
[34] = Antitumor activity against Abelson-8.1 cells at concentration 1 ug/mL and at 72 hr using direct cytotoxicity assay.; type: functional, Mus musculus
[35] = tested on: P815; experiment: Antitumor activity against P815 cells at concentration 1 ug/mL and at 72 hr using Activated Macrophage Cytotoxicity assay.; type: functional, Mus musculus
[36] = tested on: Mus musculus; experiment: Antitumor activity against mouse macrophages after day 14 at dose 0.25 mg/kg by peroral administration; type: functional; details: route oral
[37] = tested on: L1210; experiment: Antitumor activity against L1210 cells at concentration 5 ug/mL and at 72 hr using Activated Macrophage Cytotoxicity assay.; type: functional, Mus musculus
[38] = tested on: L1210; experiment: Antitumor activity against L1210 cells at concentration 3 ug/mL and at 72 hr using Activated Macrophage Cytotoxicity assay.; type: functional, Mus musculus
[39] = tested on: Mus musculus; experiment: Mouse survived after 28 days at 0.25 mg/kg; 2/10; type: functional
[40] = tested on: Mus musculus; experiment: Mouse survived after 28 days at 0.25 mg/kg; 8/10; type: functional

| Compound | Control [1] [%] | Control [2] [%] | Control [3] [%] | Control [4] [%] | Control [7] [%] | Viable cells [8] [%] | Viable cells [9] [%] | Viable cells [11] [%] | Control [12] [%] | Viable cells [16] [%] | Viable cells [17] [%] | Viable cells [18] [%] | Viable cells [19] [%] | Viable cells [21] [%] | Viable cells [22] [%] | Viable cells [23] [%] | Control [24] [%] | Viable cells [25] [%] | Viable cells [27] [%] | Viable cells [29] [%] | also measured |
| --- | --- | --- | --- | --- | --- | --- | --- | --- | --- | --- | --- | --- | --- | --- | --- | --- | --- | --- | --- | --- | --- |
| CCCCCCCCCCCCCCCCCCOC[C@@]1(COP(=O)([O-])OCC[N+](C)(C)C)CCCO1 | 85 | 53 | 32 | 21 |  |  |  |  |  |  |  |  |  |  |  |  |  |  |  |  | Survivors [5]: 3 |
| CCCCCCCCCCCCCCCCCCOC[C@]1(COP(=O)([O-])OCC[N+](C)(C)C)CCCO1 | 70 | 28 | 13 | 8 |  |  |  |  |  |  |  |  |  |  |  |  |  |  |  |  | Survivors [6]: 8 |
| CCCCCCCCCCCCCCCCCCOCC1(COP(=O)([O-])OCC[N+](C)(C)C)CCCO1 (racemic; 5) | 76 | 38 | 21 | 14 | 20 | 0.7 | 8.9 | 2 | 82 | 13 | 0.6 | 2.5 | 5.3 | 0.1 | 100 | 2.6 | 32 | 0.4 | 9.4 | 8.6 | Viable cells [10]: 0.2%; Survivors [13]: 6; Viable cells [14]: 1.6%; Viable cells [15]: 0.9%; Viable cells [20]: 16%; Survivors [26]: 3; Viable cells [28]: 1.2%; Viable cells [30]: 81%; Viable cells [31]: 60%; Viable cells [32]: 26%; Viable cells [33]: 20%; Viable cells [34]: 32%; Viable cells [35]: 3.4%; Control [36]: 47% |
| CCCCCCCCCCCCCCCCCCOCC1(COP(=O)([O-])OCC[N+](C)(C)C)CCCO1 (racemic; 8) |  |  |  |  | 21 | 1.8 | 4.5 | 4.6 | 90 | 20 | 1.3 | 1.6 | 2.8 | 0.2 | 84 | 6.8 | 37 | 0.5 | 5.3 | 13 | Viable cells [37]: 1.1%; Viable cells [38]: 1.4%; Survivors [39]: 2; Viable cells [30]: 92%; Viable cells [31]: 68%; Viable cells [32]: 14%; Viable cells [33]: 24%; Viable cells [34]: 71%; Viable cells [35]: 3.1%; Control [36]: 52% |
| CCCCCCCCCCCCCCCCCCOCC1(COP(=O)([O-])OCC[N+](C)(C)C)CCCO1 (racemic; 9) |  |  |  |  | 6 | 1.1 | 9 | 1.8 | 66 | 7 | 0.3 | 2.3 | 2.6 | 0.4 | 55 | 2.1 | 11 | 0.8 | 3.4 | 3.2 | Viable cells [37]: 0.2%; Viable cells [10]: 0.3%; Viable cells [14]: 0.6%; Viable cells [20]: 11%; Viable cells [28]: 0.9%; Viable cells [30]: 60%; Viable cells [31]: 16%; Viable cells [32]: 22%; Viable cells [33]: 7.7%; Viable cells [34]: 8.6%; Survivors [40]: 8; Viable cells [35]: 2.8%; Control [36]: 19% |
